Data: US8952024B2, “Herbicidal pyrimidone derivatives” (E I du Pont de Nemours and Company, priority 2009, dated 2015)

Assays:
Type in all cases: in vivo
[1] = system: ducksalad (Heteranthera limosa); experiment: Test B flooded paddy test; conditions: for Plant response rating, Flood, Ducksalad: 250 g ai/ha, flooded paddy test, visual rating on 0 to 100 scale (0 no effect, 100 complete control) after 13 to 15 days; for Plant response rating, Ducksalad: Flood (flooded paddy test), 13 to 15 days; for Ducksalad plant response rating: Flood, 31 g ai/ha, scale 0 to 100 (0 no effect, 100 complete control)
Summary of the method: (§1)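 2-leaf seedlings; pots flooded 3 cm over soil at treatment; cpd dosed into floodwater, depth kept constant. Greenhouse 13–15 d. Visual rating vs untreated controls, 0 = no effect, 100 = complete control.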

[2] = system: umbrella sedge (Cyperus difformis); experiment: Test B flooded paddy test; conditions: for Plant response rating, Flood, Sedge, Umbrella: 250 g ai/ha, flooded paddy test, visual rating on 0 to 100 scale (0 no effect, 100 complete control) after 13 to 15 days; for Plant response rating, Sedge, Umbrella: Flood (flooded paddy test), 13 to 15 days; for Sedge, Umbrella plant response rating: Flood, 31 g ai/ha, scale 0 to 100 (0 no effect, 100 complete control)
Summary of the method: as §1

[3] = system: barnyardgrass (Echinochloa crus-galli); experiment: Test B flooded paddy test; conditions: for Plant response rating, Flood, Barnyardgrass: 250 g ai/ha, flooded paddy test, visual rating on 0 to 100 scale (0 no effect, 100 complete control) after 13 to 15 days; for Plant response rating, Barnyardgrass: Flood (flooded paddy test), 13 to 15 days; for Barnyardgrass plant response rating: Flood, 31 g ai/ha, scale 0 to 100 (0 no effect, 100 complete control)
Summary of the method: as §1

rice (Oryza sativa) = experiment: Test B flooded paddy test; conditions: for Plant response rating, Flood, Rice: 250 g ai/ha, flooded paddy test, visual rating on 0 to 100 scale (0 no effect, 100 complete control) after 13 to 15 days; for Plant response rating, Rice: Flood (flooded paddy test), 13 to 15 days; for Rice plant response rating: Flood, 31 g ai/ha, scale 0 to 100 (0 no effect, 100 complete control)
Summary of the method: as §1

corn (Zea mays) = experiment: Test A pre-/postemergence plant response
Summary of the method: (§2)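 Visual injury rating on a 0–100 scale (0 = no effect, 100 = complete control) was made versus untreated controls after about ten days in the greenhouse. Compounds, formulated in a non-phytotoxic solvent mix containing surfactant, were sprayed preemergence onto loam/sand soil and postemergence onto one- to two-leaf plants.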

[4] = system: morningglory (Ipomoea spp.); experiment: Test A pre-/postemergence plant response
Summary of the method: as §2

[5] = system: wheat (Triticum aestivum); experiment: Test A pre-/postemergence plant response
Summary of the method: as §2

[6] = system: large crabgrass (Digitaria sanguinalis); experiment: Test A pre-/postemergence plant response
Summary of the method: as §2

[7] = system: pigweed (Amaranthus retroflexus); experiment: Test A pre-/postemergence plant response
Summary of the method: as §2

[8] = system: giant foxtail (Setaria faberii); experiment: Test A pre-/postemergence plant response
Summary of the method: as §2

[9] = system: barnyardgrass (Echinochloa crus-galli); experiment: Test A pre-/postemergence plant response
Summary of the method: as §2

[10] = system: velvetleaf (Abutilon theophrasti); experiment: Test A pre-/postemergence plant response
Summary of the method: as §2

[11] = 62 g ai/ha, scale of 0 to 100 where 0 is no effect and 100 is complete control
[12] = Postemergence, 125 g ai/ha, 0 to 100 scale where 0 is no effect and 100 is complete control
[13] = Postemergence, 500 g ai/ha, 0 to 100 scale, 0 = no effect, 100 = complete control, approx. ten days
[14] = Preemergence, 125 g ai/ha, 0 to 100 scale, 0 = no effect, 100 = complete control
[15] = Preemergence, 500 g ai/ha, visual injury, 0 to 100 scale (0 no effect, 100 complete control), approx. ten days
[16] = 125 g ai/ha, scale 0 to 100, 0 is no effect, 100 is complete control
[17] = Postemergence, 500 g ai/ha, visual injury, 0 to 100 scale (0 no effect, 100 complete control), approx. ten days
[18] = Preemergence, 500 g ai/ha, 0 to 100 scale, 0 = no effect, 100 = complete control

SMILES: CCn1c(-c2cccc(C)c2)ncc(C(=O)C2=C(O)CCCC2=O)c1=O [Compound 115]
- Plant response rating, Flood, Ducksalad [1]: 85
- Plant response rating, Ducksalad [1, 11]: 85
- Plant response rating, Flood, Sedge, Umbrella [2]: 90
- Plant response rating, Sedge, Umbrella [2, 11]: 70
- Plant response rating, Flood, Barnyardgrass [3]: 65
- Plant response rating, Barnyardgrass [3, 11]: 50
- Plant response rating, Flood, Rice (rice (Oryza sativa)): 20
- Plant response rating, Rice (rice (Oryza sativa); [11]): 20
- Plant response rating, Corn (corn (Zea mays); [12]): 0
- Plant response rating, Corn (corn (Zea mays); [13]): 20
- Plant response rating, Corn (corn (Zea mays); [14]): 0
- Plant response rating, Corn (corn (Zea mays); [15]): 0
- Plant response rating, Morningglory [4, 12]: 90
- Plant response rating, Morningglory [4, 13]: 100
- Plant response rating, Morningglory [4, 14]: 60
- Plant response rating, Morningglory [4, 15]: 80
- Plant response rating, Wheat [5, 12]: 0
- Plant response rating, Wheat [5, 13]: 0
- Plant response rating, Wheat [5, 14]: 0
- Plant response rating, Wheat [5, 15]: 0
- Plant response rating, Crabgrass, Large [6, 12]: 60
- Plant response rating, Crabgrass, Large [6, 13]: 90
- Plant response rating, Crabgrass, Large [6, 14]: 20
- Plant response rating, Crabgrass, Large [6, 15]: 80
- Plant response rating, Pigweed [7, 12]: 100
- Plant response rating, Pigweed [7, 13]: 100
- Plant response rating, Pigweed [7, 14]: 70
- Plant response rating, Pigweed [7, 15]: 100
- Plant response rating, Foxtail, Giant [8, 12]: 50
- Plant response rating, Foxtail, Giant [8, 13]: 80
- Plant response rating, Foxtail, Giant [8, 14]: 20
- Plant response rating, Foxtail, Giant [8, 15]: 70
- Plant response rating, Barnyardgrass [9, 12]: 70
- Plant response rating, Barnyardgrass [9, 13]: 90
- Plant response rating, Barnyardgrass [9, 14]: 0
- Plant response rating, Barnyardgrass [9, 15]: 80
- Plant response rating, Velvetleaf [10, 12]: 100
- Plant response rating, Velvetleaf [10, 13]: 100
- Plant response rating, Velvetleaf [10, 14]: 60
- Plant response rating, Velvetleaf [10, 15]: 90

SMILES: O=C1CCCC(O)=C1C(=O)c1cnc(-c2cccc(F)c2)n(-c2ccccc2)c1=O [Compound 199]
- Plant response rating, Flood, Ducksalad [1]: 90
- Plant response rating, Ducksalad [1, 11]: 85
- Plant response rating, Ducksalad [1, 16]: 85
- Ducksalad plant response rating [1]: 85
- Plant response rating, Flood, Sedge, Umbrella [2]: 85
- Plant response rating, Sedge, Umbrella [2, 11]: 70
- Plant response rating, Sedge, Umbrella [2, 16]: 75
- Sedge, Umbrella plant response rating [2]: 60
- Plant response rating, Flood, Barnyardgrass [3]: 25
- Plant response rating, Barnyardgrass [3, 11]: 0
- Plant response rating, Barnyardgrass [3, 16]: 15
- Barnyardgrass plant response rating [3]: 0
- Plant response rating, Flood, Rice (rice (Oryza sativa)): 0
- Plant response rating, Rice (rice (Oryza sativa); [11]): 0
- Plant response rating, Rice (rice (Oryza sativa); [16]): 0
- Rice plant response rating (rice (Oryza sativa)): 0
- Plant response rating, Corn (corn (Zea mays); [12]): 0
- Corn plant response rating (corn (Zea mays); [17]): 50
- Plant response rating, Corn (corn (Zea mays); [14]): 20
- Plant response rating, Corn (corn (Zea mays); [18]): 30
- Plant response rating, Morningglory [4, 12]: 100
- Morningglory plant response rating [4, 17]: 100
- Plant response rating, Morningglory [4, 14]: 70
- Plant response rating, Morningglory [4, 18]: 80
- Plant response rating, Wheat [5, 12]: 0
- Wheat plant response rating [5, 17]: 10
- Plant response rating, Wheat [5, 14]: 0
- Plant response rating, Wheat [5, 18]: 20
- Plant response rating, Crabgrass, Large [6, 12]: 70
- Crabgrass, Large plant response rating [6, 17]: 100
- Plant response rating, Crabgrass, Large [6, 14]: 60
- Plant response rating, Crabgrass, Large [6, 18]: 100
- Plant response rating, Pigweed [7, 12]: 100
- Pigweed plant response rating [7, 17]: 100
- Plant response rating, Pigweed [7, 14]: 80
- Plant response rating, Pigweed [7, 18]: 100
- Plant response rating, Foxtail, Giant [8, 12]: 100
- Foxtail, Giant plant response rating [8, 17]: 100
- Plant response rating, Foxtail, Giant [8, 14]: 60
- Plant response rating, Foxtail, Giant [8, 18]: 90
- Plant response rating, Barnyardgrass [9, 12]: 90
- Barnyardgrass plant response rating [9, 17]: 100
- Plant response rating, Barnyardgrass [9, 14]: 20
- Plant response rating, Barnyardgrass [9, 18]: 90
- Plant response rating, Velvetleaf [10, 12]: 100
- Velvetleaf plant response rating [10, 17]: 100
- Plant response rating, Velvetleaf [10, 14]: 90
- Plant response rating, Velvetleaf [10, 18]: 100

SMILES: O=C1CCCC(O)=C1C(=O)c1cnc(-c2ccco2)n(-c2ccccc2)c1=O [Compound 76]
- Plant response rating, Flood, Ducksalad [1]: 0
- Plant response rating, Ducksalad [1, 11]: 0
- Plant response rating, Ducksalad [1, 16]: 0
- Ducksalad plant response rating [1]: 0
- Plant response rating, Flood, Sedge, Umbrella [2]: 0
- Plant response rating, Sedge, Umbrella [2, 11]: 0
- Plant response rating, Sedge, Umbrella [2, 16]: 0
- Sedge, Umbrella plant response rating [2]: 0
- Plant response rating, Flood, Barnyardgrass [3]: 0
- Plant response rating, Barnyardgrass [3, 11]: 0
- Plant response rating, Barnyardgrass [3, 16]: 0
- Barnyardgrass plant response rating [3]: 0
- Plant response rating, Flood, Rice (rice (Oryza sativa)): 0
- Plant response rating, Rice (rice (Oryza sativa); [11]): 0
- Plant response rating, Rice (rice (Oryza sativa); [16]): 0
- Rice plant response rating (rice (Oryza sativa)): 0
- Plant response rating, Corn (corn (Zea mays); [12]): 0
- Plant response rating, Corn (corn (Zea mays); [13]): 20
- Plant response rating, Corn (corn (Zea mays); [14]): 0
- Plant response rating, Corn (corn (Zea mays); [15]): 0
- Plant response rating, Morningglory [4, 12]: 90
- Plant response rating, Morningglory [4, 13]: 90
- Plant response rating, Morningglory [4, 14]: 0
- Plant response rating, Morningglory [4, 15]: 50
- Plant response rating, Wheat [5, 12]: 0
- Plant response rating, Wheat [5, 13]: 10
- Plant response rating, Wheat [5, 14]: 0
- Plant response rating, Wheat [5, 15]: 20
- Plant response rating, Crabgrass, Large [6, 12]: 70
- Plant response rating, Crabgrass, Large [6, 13]: 90
- Plant response rating, Crabgrass, Large [6, 14]: 50
- Plant response rating, Crabgrass, Large [6, 15]: 100
- Plant response rating, Pigweed [7, 12]: 90
- Plant response rating, Pigweed [7, 13]: 100
- Plant response rating, Pigweed [7, 14]: 50
- Plant response rating, Pigweed [7, 15]: 100
- Plant response rating, Foxtail, Giant [8, 12]: 40
- Plant response rating, Foxtail, Giant [8, 13]: 70
- Plant response rating, Foxtail, Giant [8, 14]: 0
- Plant response rating, Foxtail, Giant [8, 15]: 30
- Plant response rating, Barnyardgrass [9, 12]: 50
- Plant response rating, Barnyardgrass [9, 13]: 80
- Plant response rating, Barnyardgrass [9, 14]: 0
- Plant response rating, Barnyardgrass [9, 15]: 30
- Plant response rating, Velvetleaf [10, 12]: 100
- Plant response rating, Velvetleaf [10, 13]: 100
- Plant response rating, Velvetleaf [10, 14]: 20
- Plant response rating, Velvetleaf [10, 15]: 70

SMILES: Cc1cc(F)ccc1-n1c(-c2cccc(Br)c2)ncc(C(=O)C2=C(O)CCCC2=O)c1=O [Compound 166]
- Plant response rating, Ducksalad [1, 16]: 60
- Ducksalad plant response rating [1]: 0
- Plant response rating, Sedge, Umbrella [2, 16]: 70
- Sedge, Umbrella plant response rating [2]: 50
- Plant response rating, Barnyardgrass [3, 16]: 20
- Barnyardgrass plant response rating [3]: 0
- Plant response rating, Rice (rice (Oryza sativa); [16]): 0
- Rice plant response rating (rice (Oryza sativa)): 0
- Plant response rating, Corn (corn (Zea mays); [12]): 30
- Corn plant response rating (corn (Zea mays); [17]): 40
- Plant response rating, Corn (corn (Zea mays); [14]): 0
- Plant response rating, Corn (corn (Zea mays); [18]): 0
- Plant response rating, Morningglory [4, 12]: 100
- Plant response rating, Morningglory [4, 14]: 0
- Plant response rating, Morningglory [4, 18]: 0
- Plant response rating, Wheat [5, 12]: 0
- Wheat plant response rating [5, 17]: 0
- Plant response rating, Wheat [5, 14]: 0
- Plant response rating, Wheat [5, 18]: 0
- Plant response rating, Crabgrass, Large [6, 12]: 40
- Crabgrass, Large plant response rating [6, 17]: 90
- Plant response rating, Crabgrass, Large [6, 14]: 10
- Plant response rating, Crabgrass, Large [6, 18]: 70
- Plant response rating, Pigweed [7, 12]: 70
- Pigweed plant response rating [7, 17]: 100
- Plant response rating, Pigweed [7, 14]: 0
- Plant response rating, Pigweed [7, 18]: 40
- Plant response rating, Foxtail, Giant [8, 12]: 60
- Foxtail, Giant plant response rating [8, 17]: 90
- Plant response rating, Foxtail, Giant [8, 14]: 0
- Plant response rating, Foxtail, Giant [8, 18]: 20
- Plant response rating, Barnyardgrass [9, 12]: 80
- Barnyardgrass plant response rating [9, 17]: 100
- Plant response rating, Barnyardgrass [9, 14]: 0
- Plant response rating, Barnyardgrass [9, 18]: 20
- Plant response rating, Velvetleaf [10, 12]: 100
- Velvetleaf plant response rating [10, 17]: 100
- Plant response rating, Velvetleaf [10, 14]: 40
- Plant response rating, Velvetleaf [10, 18]: 100
